US20120015906A1, “USES OF BORTEZOMIB IN PREDICTING SURVIVAL IN MULTIPLE MYELOMA PATIENTS” (priority 2009, published 2012)
“Also recorded” adds a separate entry of the source.

What was measured:
proteasome genes [1] = conditions: Burington et al., 2009; cited from earlier work
proteasome genes [2] = test: Proteasome gene expression changes after short-term exposure (test-dosing) to bortezomib, dexamethasone, thalidomide, melphalan; format: in vivo, human; conditions: for proteasome gene expression change after short-term exposure: test-dosing in myeloma patients
Description: In earlier studies, pharmacogenomics was used to identify genes altered by short-term exposure of therapy-naïve cases to thalidomide and dexamethasone. Little to no overlap was found in the genes altered by these agents with those altered by bortezomib.

Structure (SMILES)	hyperactivation of proteasome genes after short-term drug (proteasome genes [1])	changes for some proteasome genes (e.g. PSMB3 and PSMD14) compared to the changes after bortezomib (proteasome genes [2]; FIG. 10, short-term exposure)	change of PSMB2 and PSMD14 compared to the changes after bortezomib (proteasome genes [2]; melphalan test-dosing, Total Therapy 4)	proteasome gene expression change after short-term exposure (proteasome genes [2])
Nc1cccc2c1CN(C1CCC(=O)NC1=O)C2=O (stereo not drawn) [lenalidomide]	not associated with hyperactivation of proteasome genes			
N[C@@H](Cc1ccc(N(CCCl)CCCl)cc1)C(=O)O [melphalan]		reversed	inversely changed	most proteasome genes did not change
O=C1CCC(N2C(=O)c3ccccc3C2=O)C(=O)N1 (stereo not drawn) [thalidomide]	not associated with hyperactivation of proteasome genes			complete lack of activation; also recorded: did not change
